Results: ChEMBL document CHEMBL3885861, “Open TG-GATES”

Organism: Rattus norvegicus
Experiment: Open TG-GATES - Regimen: Single
Format: toxicity, organism-based, Sprague-Dawley
Set-up: regimen Single, gender Male, age 6 weeks
Settings: in vivo, po, route gavage; for APTT / Bas / Eos / Fbg / Hb / Ht / Lym / MCH / MCHC / MCV / Mono / Neu / PT / Plat / RBC / Ret / WBC: tissue Blood; for KIDNEY_L / KIDNEY_R / KIDNEY_TOTAL: tissue Kidney; for LIVER: tissue Liver; for A/G / ALP / ALT / AST / BUN / CRE / Ca / Cl / DBIL / GLC / IP / K / LDH / Na / PL / RALB / TBIL / TC / TG / TP / gamma-GTP: tissue Plasma
[1] = 0 mg/kg, 3 h, dose level Control
[2] = 0 mg/kg, 6 h, dose level Control
[3] = 0 mg/kg, 9 h, dose level Control
[4] = 0 mg/kg, 24 h, dose level Control
[5] = 200 mg/kg, 24 h, dose level Low

## NNC(=O)c1ccncc1 [ISONIAZID]
[1]
  TERMINAL_BW: 225.5 g
  APTT: 18.5 s
  Bas: 0%
  Eos: 1%
  Fbg: 232.2 mg/dL
  Hb: 13.5 g/dL
  Ht: 37.8%
  Lym: 80%
  MCH: 21.5 pg
  MCHC: 35.7%
  MCV: 60.3 fL
  Mono: 3%
  Neu: 15.6%
  PT: 11.8 s
  Plat: 121.9 x10_4/uL
  RBC: 627.2 x10_4/ul
  Ret: 8.1%
  WBC: 82.1 x10_2/uL
  KIDNEY_L: 1 g
  KIDNEY_R: 0.9 g
  KIDNEY_TOTAL: 1.9 g
  LIVER: 10.5 g
  A/G: 1.5
  ALP: 945.2 IU/L
  ALT: 34.2 IU/L
  AST: 66 IU/L
  BUN: 10 mg/dL
  CRE: 0.4 mg/dL
  Ca: 10.9 mg/dL
  Cl: 104.2 meq/L
  DBIL: 0.066 mg/dL
  GLC: 195.6 mg/dL
  IP: 8.8 mg/dL
  K: 4.1 meq/L
  LDH: 160 IU/L
  Na: 141.8 meq/L
  PL: 148.2 mg/dL
  RALB: 3.3 g/dL
  TBIL: 0.1 mg/dL
  TC: 80.8 mg/dL
  TG: 90.6 mg/dL
  TP: 5.5 g/dL
  gamma-GTP: 1.2 IU/L
[2]
  TERMINAL_BW: 221.6 g
  APTT: 19.9 s
  Bas: 0%
  Eos: 1%
  Fbg: 230 mg/dL
  Hb: 13.5 g/dL
  Ht: 37.6%
  Lym: 80.8%
  MCH: 21.8 pg
  MCHC: 35.8%
  MCV: 60.9 fL
  Mono: 3%
  Neu: 14.6%
  PT: 12.3 s
  Plat: 125.3 x10_4/uL
  RBC: 618.4 x10_4/ul
  Ret: 8%
  WBC: 96.3 x10_2/uL
  KIDNEY_L: 1 g
  KIDNEY_R: 0.9 g
  KIDNEY_TOTAL: 1.9 g
  LIVER: 9.2 g
  A/G: 1.6
  ALP: 976.8 IU/L
  ALT: 31.2 IU/L
  AST: 64.8 IU/L
  BUN: 8.8 mg/dL
  CRE: 0.4 mg/dL
  Ca: 10.4 mg/dL
  Cl: 104.2 meq/L
  DBIL: 0.068 mg/dL
  GLC: 197.6 mg/dL
  IP: 9.8 mg/dL
  K: 4.1 meq/L
  LDH: 156.6 IU/L
  Na: 141.2 meq/L
  PL: 133.8 mg/dL
  RALB: 3.3 g/dL
  TBIL: 0.1 mg/dL
  TC: 78.4 mg/dL
  TG: 52.8 mg/dL
  TP: 5.4 g/dL
  gamma-GTP: 1.2 IU/L
[3]
  TERMINAL_BW: 220.2 g
  APTT: 17.3 s
  Bas: 0%
  Eos: 0.8%
  Fbg: 221.8 mg/dL
  Hb: 13.5 g/dL
  Ht: 37.7%
  Lym: 79.2%
  MCH: 21.8 pg
  MCHC: 35.7%
  MCV: 61.1 fL
  Mono: 2%
  Neu: 16.6%
  PT: 12.5 s
  Plat: 120.7 x10_4/uL
  RBC: 617.4 x10_4/ul
  Ret: 7.7%
  WBC: 101.6 x10_2/uL
  KIDNEY_L: 0.9 g
  KIDNEY_R: 0.9 g
  KIDNEY_TOTAL: 1.9 g
  LIVER: 8.6 g
  A/G: 1.7
  ALP: 780 IU/L
  ALT: 31.4 IU/L
  AST: 70 IU/L
  BUN: 9.6 mg/dL
  CRE: 0.4 mg/dL
  Ca: 10.5 mg/dL
  Cl: 104.6 meq/L
  DBIL: 0.066 mg/dL
  GLC: 200.6 mg/dL
  IP: 9.7 mg/dL
  K: 3.8 meq/L
  LDH: 237.4 IU/L
  Na: 142.2 meq/L
  PL: 137.6 mg/dL
  RALB: 3.4 g/dL
  TBIL: 0.1 mg/dL
  TC: 74.8 mg/dL
  TG: 54.6 mg/dL
  TP: 5.4 g/dL
  gamma-GTP: 1 IU/L
[4]
  TERMINAL_BW: 234.8 g
  APTT: 18.6 s
  Bas: 0.4%
  Eos: 1.2%
  Fbg: 217.8 mg/dL
  Hb: 13.8 g/dL
  Ht: 38%
  Lym: 76%
  MCH: 22.6 pg
  MCHC: 36.2%
  MCV: 62.3 fL
  Mono: 2.8%
  Neu: 19.2%
  PT: 11.5 s
  Plat: 127.6 x10_4/uL
  RBC: 610 x10_4/ul
  Ret: 7.2%
  WBC: 106 x10_2/uL
  KIDNEY_L: 1 g
  KIDNEY_R: 1 g
  KIDNEY_TOTAL: 2 g
  LIVER: 10.9 g
  A/G: 1.6
  ALP: 930.6 IU/L
  ALT: 34 IU/L
  AST: 68.8 IU/L
  BUN: 14.8 mg/dL
  CRE: 0.4 mg/dL
  Ca: 10.9 mg/dL
  Cl: 103.8 meq/L
  DBIL: 0.058 mg/dL
  GLC: 191 mg/dL
  IP: 7.7 mg/dL
  K: 4.2 meq/L
  LDH: 190.8 IU/L
  Na: 141.8 meq/L
  PL: 154 mg/dL
  RALB: 3.5 g/dL
  TBIL: 0.1 mg/dL
  TC: 80 mg/dL
  TG: 114 mg/dL
  TP: 5.6 g/dL
  gamma-GTP: 1 IU/L
200 mg/kg, 3 h, dose level Low
  TERMINAL_BW: 222.6 g
  APTT: 18.4 s
  Bas: 0%
  Eos: 0.8%
  Fbg: 239.8 mg/dL
  Hb: 13.6 g/dL
  Ht: 38%
  Lym: 74.4%
  MCH: 22.1 pg
  MCHC: 35.8%
  MCV: 61.6 fL
  Mono: 2%
  Neu: 22.4%
  PT: 12.2 s
  Plat: 126 x10_4/uL
  RBC: 617.4 x10_4/ul
  Ret: 7.7%
  WBC: 80.9 x10_2/uL
  KIDNEY_L: 1 g
  KIDNEY_R: 1 g
  KIDNEY_TOTAL: 2 g
  LIVER: 9.3 g
  A/G: 1.6
  ALP: 918.8 IU/L
  ALT: 35.2 IU/L
  AST: 70 IU/L
  BUN: 8.8 mg/dL
  CRE: 0.4 mg/dL
  Ca: 10.3 mg/dL
  Cl: 105.2 meq/L
  DBIL: 0.066 mg/dL
  GLC: 211 mg/dL
  IP: 10.1 mg/dL
  K: 3.6 meq/L
  LDH: 175.2 IU/L
  Na: 142.8 meq/L
  PL: 137 mg/dL
  RALB: 3.5 g/dL
  TBIL: 0.1 mg/dL
  TC: 76.4 mg/dL
  TG: 57.8 mg/dL
  TP: 5.7 g/dL
  gamma-GTP: 1 IU/L
200 mg/kg, 6 h, dose level Low
  TERMINAL_BW: 219 g
  APTT: 18.5 s
  Bas: 0%
  Eos: 1%
  Fbg: 225 mg/dL
  Hb: 13.7 g/dL
  Ht: 38.3%
  Lym: 76.4%
  MCH: 21.7 pg
  MCHC: 35.8%
  MCV: 60.5 fL
  Mono: 2.6%
  Neu: 19%
  PT: 12 s
  Plat: 126.8 x10_4/uL
  RBC: 633.8 x10_4/ul
  Ret: 7.6%
  WBC: 87.2 x10_2/uL
  KIDNEY_L: 0.9 g
  KIDNEY_R: 0.9 g
  KIDNEY_TOTAL: 1.9 g
  LIVER: 9.6 g
  A/G: 1.5
  ALP: 735.6 IU/L
  ALT: 28.4 IU/L
  AST: 58 IU/L
  BUN: 8.2 mg/dL
  CRE: 0.4 mg/dL
  Ca: 10.2 mg/dL
  Cl: 104.8 meq/L
  DBIL: 0.064 mg/dL
  GLC: 211 mg/dL
  IP: 9.5 mg/dL
  K: 3.9 meq/L
  LDH: 197.4 IU/L
  Na: 142.4 meq/L
  PL: 140.8 mg/dL
  RALB: 3.3 g/dL
  TBIL: 0.1 mg/dL
  TC: 76 mg/dL
  TG: 71.2 mg/dL
  TP: 5.5 g/dL
  gamma-GTP: 1 IU/L
200 mg/kg, 9 h, dose level Low
  TERMINAL_BW: 218.2 g
  APTT: 18.8 s
  Bas: 0.2%
  Eos: 0.6%
  Fbg: 228.2 mg/dL
  Hb: 13.7 g/dL
  Ht: 37.9%
  Lym: 75%
  MCH: 21.8 pg
  MCHC: 36%
  MCV: 60.6 fL
  Mono: 3%
  Neu: 20.8%
  PT: 12.3 s
  Plat: 119 x10_4/uL
  RBC: 626.2 x10_4/ul
  Ret: 7.8%
  WBC: 82.5 x10_2/uL
  KIDNEY_L: 0.9 g
  KIDNEY_R: 0.9 g
  KIDNEY_TOTAL: 1.8 g
  LIVER: 8.8 g
  A/G: 1.7
  ALP: 793.2 IU/L
  ALT: 23.4 IU/L
  AST: 44.6 IU/L
  BUN: 9.4 mg/dL
  CRE: 0.4 mg/dL
  Ca: 10.5 mg/dL
  Cl: 105 meq/L
  DBIL: 0.064 mg/dL
  GLC: 195.2 mg/dL
  IP: 9.3 mg/dL
  K: 3.9 meq/L
  LDH: 211.4 IU/L
  Na: 142.8 meq/L
  PL: 150.2 mg/dL
  RALB: 3.5 g/dL
  TBIL: 0.1 mg/dL
  TC: 80.2 mg/dL
  TG: 77.2 mg/dL
  TP: 5.5 g/dL
  gamma-GTP: 1 IU/L
[5]
  TERMINAL_BW: 229.4 g
  APTT: 18.3 s
  Bas: 0.8%
  Eos: 1%
  Fbg: 229.2 mg/dL
  Hb: 13.5 g/dL
  Ht: 37.6%
  Lym: 78.8%
  MCH: 21.7 pg
  MCHC: 36.1%
  MCV: 60 fL
  Mono: 2.4%
  Neu: 16%
  PT: 11.7 s
  Plat: 134.2 x10_4/uL
  RBC: 626.6 x10_4/ul
  Ret: 6.5%
  WBC: 89.2 x10_2/uL
  KIDNEY_L: 1 g
  KIDNEY_R: 1 g
  KIDNEY_TOTAL: 2 g
  LIVER: 10.3 g
  A/G: 1.6
  ALP: 1043.4 IU/L
  ALT: 30 IU/L
  AST: 58.2 IU/L
  BUN: 15.6 mg/dL
  CRE: 0.4 mg/dL
  Ca: 10.8 mg/dL
  Cl: 103 meq/L
  DBIL: 0.06 mg/dL
  GLC: 200.4 mg/dL
  IP: 8.5 mg/dL
  K: 4.3 meq/L
  LDH: 221.4 IU/L
  Na: 141.8 meq/L
  PL: 139 mg/dL
  RALB: 3.6 g/dL
  TBIL: 0.1 mg/dL
  TC: 71.4 mg/dL
  TG: 101.6 mg/dL
  TP: 5.7 g/dL
  gamma-GTP: 1.4 IU/L
